Test system: 966289-007-R4-J1-PDC complex spheroid viability
Experiment: Anticancer human tumor 966289-007-R4-J1-PDC patient-derived pancreatic adenocarcinoma cell line growth inhibition [GQUAD]
Conditions: for IC50: curve of first compound; for viability, T/C: stronger effect = lower value
Method in brief: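 Multi-cell-type spheroids of tumor cells with HUVEC and mesenchymal stem cells, treated with drug combinations. Concentrations descend in half-log steps from near clinical Cmax, or from 10 microM where Cmax is unknown; viability read-out.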

[1] = second compound 0.0316 µM, first compound 0.0316 µM
[2] = second compound 0.0316 µM, first compound 0.1 µM
[3] = second compound 0.0316 µM, first compound 0.316 µM
[4] = second compound 0.0316 µM, first compound 1 µM
[5] = second compound 0.0316 µM, first compound 3.16 µM
[6] = second compound 0.0316 µM, first compound 10 µM
[7] = second compound 0.1 µM, first compound 0.0316 µM
[8] = second compound 0.1 µM, first compound 0.1 µM
[9] = second compound 0.1 µM, first compound 0.316 µM
[10] = second compound 0.1 µM, first compound 1 µM
[11] = second compound 0.1 µM, first compound 3.16 µM
[12] = second compound 0.1 µM, first compound 10 µM
[13] = second compound 0.316 µM, first compound 0.0316 µM
[14] = second compound 0.316 µM, first compound 0.1 µM
[15] = second compound 0.316 µM, first compound 0.316 µM
[16] = second compound 0.316 µM, first compound 1 µM
[17] = second compound 0.316 µM, first compound 3.16 µM
[18] = second compound 0.316 µM, first compound 10 µM
[19] = second compound 1 µM, first compound 0.0316 µM
[20] = second compound 1 µM, first compound 0.1 µM
[21] = second compound 1 µM, first compound 0.316 µM
[22] = second compound 1 µM, first compound 1 µM
[23] = second compound 1 µM, first compound 3.16 µM
[24] = second compound 1 µM, first compound 10 µM
[25] = second compound 3.16 µM, first compound 0.0316 µM
[26] = second compound 3.16 µM, first compound 0.1 µM
[27] = second compound 3.16 µM, first compound 0.316 µM
[28] = second compound 3.16 µM, first compound 1 µM
[29] = second compound 3.16 µM, first compound 3.16 µM
[30] = second compound 3.16 µM, first compound 10 µM
[31] = second compound 10 µM, first compound 0.0316 µM
[32] = second compound 10 µM, first compound 0.1 µM
[33] = second compound 10 µM, first compound 0.316 µM
[34] = second compound 10 µM, first compound 1 µM
[35] = second compound 10 µM, first compound 3.16 µM
[36] = second compound 10 µM, first compound 10 µM
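Further: spheroids exposed to the agents for seven days before readout.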
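Wherever viability, T/C is given: percent viability relative to DMSO vehicle control wells taken as 100%.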

Question: What does the source list for `COc1ncnc(C2CC2)c1-c1ncc2cnn(Cc3ccc(-c4nc(C(F)(F)F)cn4C(C)C)cc3)c2n1` + Cc1cnc(CNC(=O)c2c(=O)c3ccc(N4CCCN(C)CC4)nc3n3c2sc2ccccc23)cn1?
Answer: IC50 (second compound 0.0316 µM): > 10000 nM; IC50 (second compound 0.1 µM): < 31.6 nM; IC50 (second compound 0.316 µM): < 31.6 nM; IC50 (second compound 1 µM): < 31.6 nM; IC50 (second compound 3.16 µM): < 31.6 nM; IC50 (second compound 10 µM): < 31.6 nM; viability, T/C [1]: 105%; viability, T/C [2]: 94.2%; viability, T/C [3]: 103%; viability, T/C [4]: 92.9%; viability, T/C [5]: 101%; viability, T/C [6]: 97.3%; viability, T/C [7]: 24.4%; viability, T/C [8]: 24.1%; viability, T/C [9]: 25.3%; viability, T/C [10]: 23.8%; viability, T/C [11]: 26.4%; viability, T/C [12]: 29.3%; viability, T/C [13]: 9.38%; viability, T/C [14]: 10.1%; viability, T/C [15]: 9.14%; viability, T/C [16]: 10.4%; viability, T/C [17]: 10.8%; viability, T/C [18]: 10.4%; viability, T/C [19]: 6.44%; viability, T/C [20]: 5.74%; viability, T/C [21]: 6.97%; viability, T/C [22]: 5.21%; viability, T/C [23]: 5.65%; viability, T/C [24]: 7.13%; viability, T/C [25]: 4.34%; viability, T/C [26]: 4.38%; viability, T/C [27]: 4.76%; viability, T/C [28]: 4.44%; viability, T/C [29]: 5.14%; viability, T/C [30]: 5.37%; viability, T/C [31]: 0.08%; viability, T/C [32]: 0.13%; viability, T/C [33]: 0.17%; viability, T/C [34]: 0.16%; viability, T/C [35]: 0.4%; viability, T/C [36]: 0.41%

Question: How did the IC50 (second compound 0.0316 µM) turn out when `Nc1ccn(C2OC(CO)C(O)C2(F)F)c(=O)n1` (centres undefined) + CN(C)c1ccc(Nc2c3ccc(NC(=O)CCN4CCCC4)cc3nc3cc(NC(=O)CCN4CCCC4)ccc23)cc1 was run?
Answer: Its IC50 is under 31.6 nM.

Question: What about the IC50 (second compound 0.1 µM) of the same compound?
Answer: Its IC50 is under 31.6 nM.

Question: What about the IC50 (second compound 0.316 µM) of the same compound?
Answer: The IC50 was under 31.6 nM.

Question: What about the IC50 (second compound 1 µM) of the same compound?
Answer: The IC50 was under 31.6 nM.

Question: What about the IC50 (second compound 3.16 µM) of the same compound?
Answer: Its IC50 is under 31.6 nM.

Question: And the IC50 (second compound 10 µM)?
Answer: Its IC50 is under 31.6 nM.

Question: And the viability, T/C [1]?
Answer: Its viability, T/C is 14%.

Question: And the viability, T/C [2]?
Answer: Its viability, T/C is 1.18%.

Question: And the viability, T/C [3]?
Answer: Its viability, T/C is 0.88%.

Question: What about the viability, T/C [4] of the same compound?
Answer: Its viability, T/C is 0.96%.

Question: What about the viability, T/C [5] of the same compound?
Answer: Its viability, T/C is 0.85%.

Question: And the viability, T/C [6]?
Answer: The viability, T/C was 0.89%.

Question: What about the viability, T/C [7] of the same compound?
Answer: The viability, T/C was 10.8%.

Question: What about the viability, T/C [8] of the same compound?
Answer: The viability, T/C was 2.18%.

Question: What about the viability, T/C [9] of the same compound?
Answer: Its viability, T/C is 0.86%.

Question: And the viability, T/C [10]?
Answer: Its viability, T/C is 1.06%.

Question: And the viability, T/C [11]?
Answer: The viability, T/C was 0.89%.

Question: And the viability, T/C [12]?
Answer: Its viability, T/C is 1.03%.

Question: What about the viability, T/C [13] of the same compound?
Answer: Its viability, T/C is 8.99%.

Question: What about the viability, T/C [14] of the same compound?
Answer: Its viability, T/C is 1.42%.

Question: What about the viability, T/C [15] of the same compound?
Answer: Its viability, T/C is 0.99%.

Question: And the viability, T/C [16]?
Answer: The viability, T/C was 0.97%.

Question: What about the viability, T/C [17] of the same compound?
Answer: Its viability, T/C is 0.84%.

Question: And the viability, T/C [18]?
Answer: Its viability, T/C is 0.93%.

Question: What about the viability, T/C [19] of the same compound?
Answer: Its viability, T/C is 9.78%.

Question: And the viability, T/C [20]?
Answer: Its viability, T/C is 1.73%.

Question: And the viability, T/C [21]?
Answer: Its viability, T/C is 1.22%.

Question: And the viability, T/C [22]?
Answer: The viability, T/C was 1.01%.

Question: What about the viability, T/C [23] of the same compound?
Answer: Its viability, T/C is 0.89%.

Question: And the viability, T/C [24]?
Answer: The viability, T/C was 0.91%.

Question: What about the viability, T/C [25] of the same compound?
Answer: The viability, T/C was 8.33%.

Question: What about the viability, T/C [26] of the same compound?
Answer: Its viability, T/C is 1.17%.

Question: What about the viability, T/C [27] of the same compound?
Answer: The viability, T/C was 1.01%.

Question: And the viability, T/C [28]?
Answer: Its viability, T/C is 0.9%.

Question: And the viability, T/C [29]?
Answer: The viability, T/C was 1.5%.

Question: What about the viability, T/C [30] of the same compound?
Answer: Its viability, T/C is 0.99%.

Question: And the viability, T/C [31]?
Answer: Its viability, T/C is 5.04%.

Question: What about the viability, T/C [32] of the same compound?
Answer: The viability, T/C was 1.02%.

Question: And the viability, T/C [33]?
Answer: Its viability, T/C is 1.04%.

Question: And the viability, T/C [34]?
Answer: Its viability, T/C is 0.83%.

Question: What about the viability, T/C [35] of the same compound?
Answer: Its viability, T/C is 0.85%.

Question: And the viability, T/C [36]?
Answer: Its viability, T/C is 0.85%.

From PubChem BioAssay AID2060488 (Molecular Pharmacology Branch, DTP, NCI, 2025)
